# Target: T1, full-length (FL) wild-type (WT) NicA2 (Pseudomonas putida, UniProt F8G0P2)
# T1 construct: full length, C-terminal 6xHis (pET28a), E. coli BL21(DE3); FAD-containing; the assays say only WT NicA2, full length inferred from cloning section
# T1 sequence (F8G0P2 1-482): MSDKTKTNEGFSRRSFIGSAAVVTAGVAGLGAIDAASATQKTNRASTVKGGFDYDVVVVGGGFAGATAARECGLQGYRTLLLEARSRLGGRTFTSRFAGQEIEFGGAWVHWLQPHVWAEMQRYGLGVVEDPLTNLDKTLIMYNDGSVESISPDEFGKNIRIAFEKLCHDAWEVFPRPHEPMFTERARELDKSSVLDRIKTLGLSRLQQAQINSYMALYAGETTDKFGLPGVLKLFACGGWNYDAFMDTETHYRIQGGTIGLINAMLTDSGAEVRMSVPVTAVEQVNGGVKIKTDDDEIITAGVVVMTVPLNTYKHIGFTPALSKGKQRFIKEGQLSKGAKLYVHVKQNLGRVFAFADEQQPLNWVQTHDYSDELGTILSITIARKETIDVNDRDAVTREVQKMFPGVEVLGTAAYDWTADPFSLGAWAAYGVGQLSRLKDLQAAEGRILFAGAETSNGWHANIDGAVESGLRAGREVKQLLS
# Assay: Ni-NTA removal of enzyme, GC of free versus total product
# Assay type: binding
# Details: 25 °C, 1.5 h, equimolar nicotine; product formed in situ; construct (full length or 21-482) not stated
smiles,measurement,value
CNCCCC(=O)c1cccnc1 [pseudooxynicotine],"Ni-NTA removal of enzyme, GC of free versus total product",only one-fourth of the PN produced in the reaction system was released to solution by NicA2

# Source: paper PMC7468206, “Molecular Deceleration Regulates Toxicant Release to Prevent Cell Damage in Pseudomonas putida S16 (DSM 28022)” (mBio, 2020)
